Test results: PubChem BioAssay (NCI)
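48-hour exposure; five concentrations; linearly interpolated endpoints. At the TGI there is no net growth.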

Key:
Assay in all cases: NCI-60 cell line screen, 48 h
[1] = test system: MOLT-4 leukemia
[2] = test system: A549 NSCLC
[3] = test system: SF-268 CNS
[4] = test system: HCT-15 colon
[5] = test system: A498 renal
[6] = test system: OVCAR-4 ovarian
[7] = test system: MCF7 breast
[8] = test system: UACC-257 melanoma
[9] = test system: HOP-62 NSCLC
[10] = test system: SN12C renal
[11] = test system: NCI-H522 lung
[12] = test system: HCT-116 colon
[13] = test system: BT-549 breast
[14] = test system: PC-3 prostate
[15] = test system: SW-620 colon
[16] = test system: OVCAR-8 ovarian
[17] = test system: SK-OV-3 ovarian
[18] = test system: SNB-19 CNS
[19] = test system: HS 578T breast
[20] = test system: SF-295 CNS
[21] = test system: UO-31 renal
[22] = test system: HOP-92 NSCLC
[23] = test system: KM12 colon
[24] = test system: RPMI-8226 leukemia
[25] = test system: DU-145 prostate
[26] = test system: HT29 colon
[27] = test system: CCRF-CEM leukemia
[28] = test system: NCI-H460 lung
[29] = test system: K-562 leukemia
[30] = test system: U251 CNS
[31] = test system: CAKI-1 renal
[32] = test system: LOX IMVI melanoma
[33] = test system: SNB-75 CNS
[34] = test system: COLO 205 colon
[35] = test system: SK-MEL-5 melanoma
[36] = test system: MDA-MB-435
[37] = test system: HL-60(TB) leukemia
[38] = test system: 786-0 renal
[39] = test system: OVCAR-3 ovarian
[40] = test system: SK-MEL-28 melanoma
[41] = test system: RXF 393 renal
[42] = test system: NCI-H23 lung
[43] = test system: MALME-3M melanoma
[44] = test system: SF-539 CNS
[45] = test system: T-47D breast
[46] = test system: TK-10 renal
[47] = test system: M14 melanoma
[48] = test system: HCC-2998 colon
[49] = test system: OVCAR-5 ovarian
[50] = test system: EKVX NSCLC
[51] = test system: NCI/ADR-RES ovarian
[52] = test system: SK-MEL-2 melanoma
[53] = test system: ACHN renal
[54] = test system: MDA-MB-231 breast
[55] = test system: IGROV1 ovarian
[56] = test system: UACC-62 melanoma
[57] = test system: NCI-H226 lung

COc1cc(Nc2c(C#N)[n+]([O-])c3ccccc3[n+]2[O-])cc(OC)c1OC
TGI [1]: > 100 µM | TGI [2]: > 100 µM | TGI [3]: > 100 µM | TGI [4]: > 100 µM | TGI [5]: > 100 µM | TGI [6]: > 100 µM | TGI [7]: 59 µM | TGI [8]: 67.2 µM | TGI [9]: > 100 µM | TGI [10]: > 100 µM | TGI [11]: > 100 µM | TGI [12]: 29.9 µM | TGI [13]: > 100 µM | TGI [14]: > 100 µM | TGI [15]: > 100 µM | TGI [16]: > 100 µM | TGI [17]: 67.4 µM | TGI [18]: > 100 µM | TGI [19]: > 100 µM | TGI [20]: > 100 µM | TGI [21]: > 100 µM | TGI [22]: > 100 µM | TGI [23]: > 100 µM | TGI [24]: > 100 µM | TGI [25]: > 100 µM | TGI [26]: > 100 µM | TGI [27]: > 100 µM | TGI [28]: > 100 µM | TGI [29]: > 100 µM | TGI [30]: > 100 µM | TGI [31]: > 100 µM | TGI [32]: > 100 µM | TGI [33]: > 100 µM | TGI [34]: 28.7 µM | TGI [35]: 54.1 µM | TGI [36]: > 100 µM | TGI [37]: > 100 µM | TGI [38]: 49.8 µM | TGI [39]: > 100 µM | TGI [40]: > 100 µM | TGI [41]: > 100 µM | TGI [42]: 38.2 µM | TGI [43]: > 100 µM | TGI [44]: > 100 µM | TGI [45]: 48.2 µM | TGI [46]: > 100 µM | TGI [47]: 36 µM | TGI [48]: 86 µM | TGI [49]: 54.7 µM | TGI [50]: > 100 µM | TGI [51]: 51 µM | TGI [52]: > 100 µM | TGI [53]: > 100 µM

Cc1cc(C(=O)CBr)c(CN2C(=O)c3ccccc3C2=O)c(=O)n1C
TGI [1]: 5.57 µM | TGI [2]: 44.7 µM | TGI [3]: 54.9 µM | TGI [4]: 34.9 µM | TGI [6]: > 100 µM | TGI [54]: 40.2 µM | TGI [7]: 56 µM | TGI [8]: 33.5 µM | TGI [55]: 64.2 µM | TGI [9]: > 100 µM | TGI [10]: 36 µM | TGI [11]: 37.4 µM | TGI [12]: > 100 µM | TGI [13]: 32.7 µM | TGI [14]: 35.5 µM | TGI [15]: 23 µM | TGI [16]: 41.1 µM | TGI [17]: > 100 µM | TGI [18]: 93.2 µM | TGI [19]: 45.6 µM | TGI [20]: > 100 µM | TGI [21]: 41.6 µM | TGI [23]: 40.1 µM | TGI [25]: 30.5 µM | TGI [26]: > 100 µM | TGI [27]: 6.25 µM | TGI [28]: 76.6 µM | TGI [56]: 34.7 µM | TGI [29]: 20.6 µM | TGI [30]: 38 µM | TGI [31]: 47.8 µM | TGI [32]: 99.3 µM | TGI [33]: 56.5 µM | TGI [34]: 47.9 µM | TGI [36]: 43.6 µM | TGI [37]: 25 µM | TGI [38]: > 100 µM | TGI [39]: 40.9 µM | TGI [40]: 42.7 µM | TGI [41]: 33.7 µM | TGI [42]: > 100 µM | TGI [43]: 36.8 µM | TGI [44]: 34.3 µM | TGI [45]: 74.4 µM | TGI [46]: 25.3 µM | TGI [57]: > 100 µM | TGI [47]: > 100 µM | TGI [48]: 59.7 µM | TGI [49]: 52.6 µM | TGI [50]: 14.5 µM | TGI [51]: > 100 µM | TGI [52]: 61.7 µM | TGI [53]: 25.6 µM
